# Values joined by “and” are separate entries in the source; they are usually repeats but may differ in a detail not shown here. Identical values can stand only once.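 All cell lines were grown in 96-well plates and treated with compound for 48 hours. Abbreviation: GI50, concentration required for 50% inhibition of growth. The concentration for full growth arrest is given as TGI.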
# Assays:
# Test in all cases: inhibition of tumour cell growth, NCI panel, 48 h
# [1] = system: 786-0 renal
# [2] = system: A498 renal
# [3] = system: A549 NSCLC
# [4] = system: ACHN renal
# [5] = system: BT-549 breast
# [6] = system: CAKI-1 renal
# [7] = system: CCRF-CEM leukemia
# [8] = system: DU-145 prostate
# [9] = system: EKVX NSCLC
# [10] = system: HCT-116 colon
# [11] = system: HCT-15 colon
# [12] = system: HL-60(TB) leukemia
# [13] = system: HOP-62 NSCLC
# [14] = system: HOP-92 NSCLC
# [15] = system: HT29 colon
# [16] = system: IGROV1 ovarian
# [17] = system: K-562 leukemia
# [18] = system: KM12 colon
# [19] = system: LOX IMVI melanoma
# [20] = system: M14 melanoma
# [21] = system: MALME-3M melanoma
# [22] = system: MCF7 breast
# [23] = system: MDA-MB-231 breast
# [24] = system: MDA-MB-435
# [25] = system: MDA-N
# [26] = system: MOLT-4 leukemia
# [27] = system: NCI-H226 lung
# [28] = system: NCI-H23 lung
# [29] = system: NCI-H460 lung
# [30] = system: NCI-H522 lung
# [31] = system: NCI/ADR-RES ovarian
# [32] = system: OVCAR-3 ovarian
# [33] = system: OVCAR-5 ovarian
# [34] = system: OVCAR-8 ovarian
# [35] = system: PC-3 prostate
# [36] = system: RXF 393 renal
# [37] = system: SF-268 CNS
# [38] = system: SF-295 CNS
# [39] = system: SF-539 CNS
# [40] = system: SK-MEL-28 melanoma
# [41] = system: SK-MEL-5 melanoma
# [42] = system: SN12C renal
# [43] = system: SNB-75 CNS
# [44] = system: SR leukemia
# [45] = system: SW-620 colon
# [46] = system: T-47D breast
# [47] = system: TK-10 renal
# [48] = system: U251 CNS
# [49] = system: UACC-257 melanoma
# [50] = system: UO-31 renal
# [51] = system: COLO 205 colon
# [52] = system: HS 578T breast
# [53] = system: OVCAR-4 ovarian
# [54] = system: RPMI-8226 leukemia
# [55] = system: SK-MEL-2 melanoma
# [56] = system: SK-OV-3 ovarian
# [57] = system: UACC-62 melanoma
# [58] = system: HCC-2998 colon
# [59] = system: SNB-19 CNS
smiles,measurement,setting,value
C=C(C)[C@@H]1CC[C@]2(CO)CC[C@]3(C)[C@H](CC[C@@H]4[C@@]5(C)CC[C@H](O)C(C)(C)[C@@H]5CC[C@]43C)[C@@H]12,TGI,[1],27.1 µM
same,TGI,[2],61.9 µM
same,TGI,[3],26.9 µM
same,TGI,[4],25.6 µM
same,TGI,[5],39.8 µM
same,TGI,[6],29 µM
same,TGI,[7],> 100 µM
same,TGI,[8],> 100 µM
same,TGI,[9],87.6 µM
same,TGI,[10],> 100 µM
same,TGI,[11],> 100 µM
same,TGI,[12],> 100 µM
same,TGI,[13],42.1 µM
same,TGI,[14],41 µM
same,TGI,[15],48.6 µM
same,TGI,[16],> 100 µM
same,TGI,[17],> 100 µM
same,TGI,[18],> 100 µM
same,TGI,[19],28.4 µM
same,TGI,[20],> 100 µM
same,TGI,[21],> 100 µM
same,TGI,[22],45.5 µM
same,TGI,[23],> 100 µM
same,TGI,[24],57.1 µM
same,TGI,[25],> 100 µM
same,TGI,[26],> 100 µM
same,TGI,[27],> 100 µM
same,TGI,[28],> 100 µM
same,TGI,[29],> 100 µM
same,TGI,[30],64.9 µM
same,TGI,[31],> 100 µM
same,TGI,[32],66.4 µM
same,TGI,[33],> 100 µM
same,TGI,[34],60.1 µM
same,TGI,[35],84.3 µM
same,TGI,[36],25.9 µM
same,TGI,[37],> 100 µM
same,TGI,[38],27.8 µM
same,TGI,[39],33.8 µM
same,TGI,[40],> 100 µM
same,TGI,[41],57.9 µM
same,TGI,[42],69.6 µM
same,TGI,[43],28.9 µM
same,TGI,[44],> 100 µM
same,TGI,[45],43.5 µM
same,TGI,[46],> 100 µM
same,TGI,[47],38 µM
same,TGI,[48],24.1 µM
same,TGI,[49],54.9 µM
same,TGI,[50],26 µM
O=c1c(/C=C/c2c(O)ccc3ccccc23)nnc2sc(-c3cccc([N+](=O)[O-])c3)nn12,TGI,[1],> 100 µM
same,TGI,[4],> 100 µM
same,TGI,[5],> 100 µM
same,TGI,[6],> 100 µM
same,TGI,[51],> 100 µM
same,TGI,[8],> 100 µM
same,TGI,[9],79.4 µM
same,TGI,[10],32.2 µM
same,TGI,[11],> 100 µM
same,TGI,[12],13.5 µM
same,TGI,[13],> 100 µM
same,TGI,[14],> 100 µM
same,TGI,[52],56.1 µM
same,TGI,[15],> 100 µM
same,TGI,[16],> 100 µM
same,TGI,[17],> 100 µM
same,TGI,[18],> 100 µM
same,TGI,[19],> 100 µM
same,TGI,[20],68.4 µM
same,TGI,[21],47.3 µM
same,TGI,[23],58 µM
same,TGI,[24],> 100 µM
same,TGI,[25],> 100 µM
same,TGI,[26],28.4 µM
same,TGI,[28],> 100 µM
same,TGI,[30],28.1 µM
same,TGI,[31],67.8 µM
same,TGI,[32],7.23 µM
same,TGI,[53],51.6 µM
same,TGI,[33],> 100 µM
same,TGI,[34],> 100 µM
same,TGI,[35],46.5 µM
same,TGI,[54],> 100 µM
same,TGI,[36],> 100 µM
same,TGI,[37],89.8 µM
same,TGI,[38],82.6 µM
same,TGI,[55],70.1 µM
same,TGI,[40],> 100 µM
same,TGI,[56],> 100 µM
same,TGI,[42],> 100 µM
same,TGI,[44],> 100 µM
same,TGI,[45],> 100 µM
same,TGI,[47],89.3 µM
same,TGI,[48],> 100 µM
same,TGI,[49],51 µM
same,TGI,[57],43.9 µM
same,TGI,[50],> 100 µM
c1ccc(C(=NNc2nc3ccccc3o2)c2ccccn2)nc1,GI50,[1],0.125 µM
same,GI50,[2],0.117 µM
same,TGI,[2],0.834 µM and 6.5 µM
same,GI50,[3],0.108 µM
same,TGI,[3],> 34.5 µM and 16.5 µM
same,GI50,[4],0.0395 µM
same,GI50,[5],0.153 µM
same,GI50,[6],0.0497 µM
same,TGI,[6],7.87 µM and 1.34 µM
same,GI50,[7],0.033 µM
same,GI50,[51],0.0194 µM
same,TGI,[51],14.4 µM
same,GI50,[8],0.0775 µM
same,TGI,[8],19.4 µM and > 34.3 µM
same,GI50,[9],0.0387 µM
same,GI50,[58],0.0972 µM
same,TGI,[58],18.4 µM and 1.96 µM
same,GI50,[10],0.0296 µM
same,GI50,[11],0.0376 µM
same,TGI,[11],> 75.4 µM and 17.9 µM
same,GI50,[12],0.0323 µM
same,TGI,[12],0.289 µM and 1.14 µM
same,GI50,[13],0.0532 µM
same,GI50,[14],0.0751 µM
same,GI50,[52],1.01 µM
same,TGI,[52],> 81.9 µM and 55.5 µM
same,GI50,[15],< 0.0361 µM
same,TGI,[15],> 66.8 µM and 12.7 µM
same,GI50,[16],0.0437 µM
same,TGI,[16],11.7 µM
same,TGI,[17],> 100 µM and 22.9 µM
same,GI50,[18],0.0681 µM
same,TGI,[18],17.8 µM and 15 µM
same,GI50,[19],0.0539 µM
same,TGI,[19],2.45 µM and 0.702 µM
same,GI50,[20],0.0418 µM
same,GI50,[21],0.134 µM
same,GI50,[22],0.0289 µM
same,GI50,[23],0.0693 µM
same,TGI,[23],21.6 µM and 17.7 µM
same,GI50,[24],0.273 µM
same,TGI,[24],34.6 µM and 28.3 µM
same,TGI,[25],25.9 µM
same,GI50,[26],0.0316 µM
same,TGI,[26],> 56.5 µM
same,GI50,[27],0.0628 µM
same,GI50,[28],0.0617 µM
same,TGI,[28],26.6 µM and 27.9 µM
same,GI50,[29],0.0575 µM and 0.163 µM
same,TGI,[29],5.22 µM and 1.5 µM
same,GI50,[30],0.0339 µM
same,GI50,[31],0.0386 µM
same,GI50,[32],< 0.0218 µM and 0.035 µM
same,TGI,[32],14.5 µM and 16.9 µM
same,GI50,[53],0.0128 µM
same,GI50,[33],0.0847 µM
same,GI50,[34],0.0389 µM
same,GI50,[35],0.0436 µM
same,TGI,[35],26.6 µM and 13.8 µM
same,GI50,[54],0.047 µM
same,TGI,[36],5.96 µM and 3.95 µM
same,GI50,[37],0.0551 µM
same,TGI,[37],22.9 µM and 2.38 µM
same,TGI,[38],12.6 µM and 3.7 µM
same,GI50,[39],0.112 µM
same,GI50,[55],0.465 µM
same,TGI,[55],28.8 µM and 27.1 µM
same,GI50,[40],0.124 µM
same,TGI,[40],48.6 µM
same,GI50,[41],0.163 µM
same,TGI,[41],1.18 µM and 0.491 µM
same,GI50,[56],0.0518 µM
same,GI50,[42],0.0856 µM
same,TGI,[42],> 71.7 µM
same,TGI,[59],> 46 µM and 33.7 µM
same,GI50,[43],0.397 µM
same,TGI,[43],24.1 µM
same,GI50,[45],0.0524 µM
same,TGI,[45],39.8 µM and 19.1 µM
same,TGI,[46],12.4 µM and 25.8 µM
same,GI50,[47],0.0673 µM
same,TGI,[47],> 100 µM and 17.5 µM
same,GI50,[48],0.0649 µM
same,TGI,[48],20.1 µM and 16.1 µM
same,GI50,[49],0.163 µM
same,TGI,[49],0.633 µM
same,GI50,[57],0.0863 µM
same,TGI,[57],0.756 µM and 0.413 µM
same,GI50,[50],0.0427 µM
same,TGI,[50],1.18 µM and 3.03 µM

# From PubChem BioAssay (NCI)
